# Like-named read-outs stand apart in the source and are kept apart here.
# Key:
# Format in all cases: biochemical
# LATS1 = biological target: T1, LATS1 (Homo sapiens, UniProt O95835); assay: RBC HotSpot kinase assay (33P-ATP, P81 filter-binding), LATS1; conditions: read-out: LATS1 IC50
# T1 sequence (O95835 1-1130): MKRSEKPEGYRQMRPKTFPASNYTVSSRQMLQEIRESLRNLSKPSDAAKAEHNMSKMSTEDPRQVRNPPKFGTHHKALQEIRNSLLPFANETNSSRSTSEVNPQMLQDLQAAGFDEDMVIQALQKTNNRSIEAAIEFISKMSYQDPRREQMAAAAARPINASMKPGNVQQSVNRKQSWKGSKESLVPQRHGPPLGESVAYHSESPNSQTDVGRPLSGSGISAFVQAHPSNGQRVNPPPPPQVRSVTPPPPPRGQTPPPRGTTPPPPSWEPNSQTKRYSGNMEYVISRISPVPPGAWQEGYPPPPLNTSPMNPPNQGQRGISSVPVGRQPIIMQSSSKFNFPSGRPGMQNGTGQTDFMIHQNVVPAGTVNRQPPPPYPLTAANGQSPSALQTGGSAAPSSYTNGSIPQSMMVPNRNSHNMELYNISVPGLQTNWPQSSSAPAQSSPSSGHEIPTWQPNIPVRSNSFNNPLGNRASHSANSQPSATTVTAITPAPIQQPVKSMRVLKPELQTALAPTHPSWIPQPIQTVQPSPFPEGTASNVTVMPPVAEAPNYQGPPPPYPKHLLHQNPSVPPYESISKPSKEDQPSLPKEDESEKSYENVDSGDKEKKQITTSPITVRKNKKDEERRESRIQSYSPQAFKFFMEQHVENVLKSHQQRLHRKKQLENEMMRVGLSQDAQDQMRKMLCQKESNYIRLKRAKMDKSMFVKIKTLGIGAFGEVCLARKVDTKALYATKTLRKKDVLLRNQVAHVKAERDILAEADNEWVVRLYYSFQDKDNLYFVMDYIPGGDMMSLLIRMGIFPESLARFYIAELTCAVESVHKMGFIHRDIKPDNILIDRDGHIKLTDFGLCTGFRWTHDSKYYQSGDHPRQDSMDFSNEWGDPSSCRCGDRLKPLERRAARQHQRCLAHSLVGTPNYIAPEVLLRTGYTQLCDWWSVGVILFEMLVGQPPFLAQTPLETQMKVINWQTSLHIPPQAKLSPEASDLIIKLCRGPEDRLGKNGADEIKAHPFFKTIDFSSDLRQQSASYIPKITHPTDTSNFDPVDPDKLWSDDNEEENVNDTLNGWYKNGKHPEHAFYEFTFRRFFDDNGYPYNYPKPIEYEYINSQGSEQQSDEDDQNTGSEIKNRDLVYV
# Procedure, shortened: (§1)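 Radiometric 33P-ATP kinase reaction in 20 mM Hepes pH 7.5, 10 mM MgCl2, 1 mM EGTA, 0.01% Brij35, 0.02 mg/ml BSA, 0.1 mM Na3VO4, 2 mM DTT, 1% DMSO. Compound preincubated with kinase and substrate 20 min, then 2 h at room temperature; P81 filter-binding read-out. IC50 (nM) from 10-point singlet curves.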
# LATS2 = biological target: T2, LATS2 (Homo sapiens, UniProt Q9NRM7); assay: RBC HotSpot kinase assay (33P-ATP, P81 filter-binding), LATS2; conditions: read-out: LATS2 IC50
# T2 sequence (Q9NRM7 1-1088): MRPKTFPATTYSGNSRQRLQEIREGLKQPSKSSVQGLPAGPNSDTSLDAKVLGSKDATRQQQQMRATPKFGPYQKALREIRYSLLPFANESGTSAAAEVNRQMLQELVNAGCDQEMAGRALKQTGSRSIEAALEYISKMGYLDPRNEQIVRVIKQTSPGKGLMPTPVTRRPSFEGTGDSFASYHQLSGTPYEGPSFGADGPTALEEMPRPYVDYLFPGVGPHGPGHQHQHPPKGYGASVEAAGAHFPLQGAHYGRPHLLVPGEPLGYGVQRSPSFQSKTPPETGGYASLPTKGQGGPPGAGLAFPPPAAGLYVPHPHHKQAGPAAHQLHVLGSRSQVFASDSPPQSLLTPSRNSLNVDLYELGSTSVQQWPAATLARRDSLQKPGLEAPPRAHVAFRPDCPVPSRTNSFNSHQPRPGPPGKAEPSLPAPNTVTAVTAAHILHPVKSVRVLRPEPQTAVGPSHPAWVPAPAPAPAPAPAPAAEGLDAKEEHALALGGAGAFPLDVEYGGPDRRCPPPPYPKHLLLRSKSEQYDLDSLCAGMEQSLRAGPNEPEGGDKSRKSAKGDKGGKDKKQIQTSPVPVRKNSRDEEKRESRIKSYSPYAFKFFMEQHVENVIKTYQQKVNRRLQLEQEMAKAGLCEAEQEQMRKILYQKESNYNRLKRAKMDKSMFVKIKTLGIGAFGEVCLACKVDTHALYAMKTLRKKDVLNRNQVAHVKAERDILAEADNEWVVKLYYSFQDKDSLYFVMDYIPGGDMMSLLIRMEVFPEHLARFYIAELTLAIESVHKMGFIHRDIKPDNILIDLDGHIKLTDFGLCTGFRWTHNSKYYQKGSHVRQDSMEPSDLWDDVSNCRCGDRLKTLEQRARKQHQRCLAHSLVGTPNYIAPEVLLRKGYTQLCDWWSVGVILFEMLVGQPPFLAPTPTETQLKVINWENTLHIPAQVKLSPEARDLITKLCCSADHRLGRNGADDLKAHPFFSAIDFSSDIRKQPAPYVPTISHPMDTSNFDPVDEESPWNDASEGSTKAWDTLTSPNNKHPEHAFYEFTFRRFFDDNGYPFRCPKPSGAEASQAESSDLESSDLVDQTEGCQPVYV
# Procedure, shortened: as §1
# AKT = AKT (Homo sapiens, UniProt P31749); assay: RBC HotSpot kinase assay (33P-ATP, P81 filter-binding), AKT; conditions: read-out: AKT IC50
# AKT, sequence (P31749 whole entry): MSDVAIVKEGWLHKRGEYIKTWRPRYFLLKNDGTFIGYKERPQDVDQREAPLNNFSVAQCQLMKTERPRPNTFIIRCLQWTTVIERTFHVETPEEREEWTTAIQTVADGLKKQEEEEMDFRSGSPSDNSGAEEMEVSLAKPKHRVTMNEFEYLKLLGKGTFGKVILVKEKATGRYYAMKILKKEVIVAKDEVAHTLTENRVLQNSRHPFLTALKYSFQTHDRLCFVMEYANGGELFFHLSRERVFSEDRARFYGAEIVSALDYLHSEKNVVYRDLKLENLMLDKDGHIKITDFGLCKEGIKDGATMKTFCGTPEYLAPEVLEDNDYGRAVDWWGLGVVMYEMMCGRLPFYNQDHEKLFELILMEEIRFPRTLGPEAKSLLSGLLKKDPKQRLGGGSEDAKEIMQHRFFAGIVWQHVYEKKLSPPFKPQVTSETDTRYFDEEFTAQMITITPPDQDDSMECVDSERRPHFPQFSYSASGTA
# Procedure, shortened: as §1
# [1] = Table 32, biochemical kinase assay
Compound,IC50 (LATS1; [1]) [nM],IC50 (LATS2; [1]) [nM],IC50 (AKT; [1]) [nM],IC50 (LATS1; biochemical kinase inhibition) [nM],IC50 (LATS2; biochemical kinase inhibition) [nM],IC50 (AKT; biochemical kinase inhibition) [nM]
"NCC(=O)NCC(O)(c1ccc(Cl)cc1)c1ccc(-c2ccnc3[nH]ccc23)cc1 (stereo not drawn) [Compound 1020, N-(2-(4-(1H-pyrrolo[2,3-b]pyridin-4-yl)phenyl)-2-(4-chlorophenyl)-2-hydroxyethyl)-2-aminoacetamide]",3,2.4,1.4,,,
"O=C(CP(=O)(O)O)NCC(O)(c1ccc(Cl)cc1)c1ccc(-c2ccnc3[nH]ccc23)cc1 (stereo not drawn) [Compound 1022, (2-((2-(4-(1H-pyrrolo[2,3-b]pyridin-4-yl)phenyl)-2-(4-chlorophenyl)-2-hydroxyethyl)amino)-2-oxoethyl) phosphonic acid]",9.6,12,3.1,,,
"O=C(NCC(O)(c1ccc(Cl)cc1)c1ccc(-c2ccnc3[nH]ccc23)cc1)[C@@H]1CCCN1 (stereo partly drawn) [Compound 1023, (2S)—N-(2-(4-(1H-pyrrolo[2,3-b]pyridin-4-yl)phenyl)-2-(4-chlorophenyl)-2-hydroxyethyl)pyrrolidine-2-carboxamide]",3.4,4.6,9.2,,,
"O=C(NCC(O)(c1ccc(Cl)cc1)c1ccc(-c2ccnc3[nH]ccc23)cc1)[C@H]1CCCN1 (stereo partly drawn) [Compound 1024, (2R)-N-(2-(4-(1H-pyrrolo[2,3-b]pyridin-4-yl)phenyl)-2-(4-chlorophenyl)-2-hydroxyethyl)pyrrolidine-2-carboxamide]",3.7,2.4,5.6,,,
"NCC(=O)NCC(=O)NCC(O)(c1ccc(Cl)cc1)c1ccc(-c2ccnc3[nH]ccc23)cc1 (stereo not drawn) [Compound 1025, N-(2-(4-(1H-pyrrolo[2,3-b]pyridin-4-yl)phenyl)-2-(4-chlorophenyl)-2-hydroxyethyl)-2-(2-aminoacetamido)acetamide]",4.1,4.5,3.1,,,
"C[C@H](N)C(=O)NCC(O)(c1ccc(Cl)cc1)c1ccc(-c2ccnc3[nH]ccc23)cc1 (stereo partly drawn) [Compound 1026, (2S)-N-(2-(4-(1H-pyrrolo[2,3-b]pyridin-4-yl)phenyl)-2-(4-chlorophenyl)-2-hydroxyethyl)-2-aminopropanamide]",3.8,2.3,1.2,,,
"CNCC(=O)NCC(O)(c1ccc(Cl)cc1)c1ccc(-c2ccnc3[nH]ccc23)cc1 (stereo not drawn) [Compound 1027, N-(2-(4-(1H-pyrrolo[2,3-b]pyridin-4-yl)phenyl)-2-(4-chlorophenyl)-2-hydroxyethyl)-2-(methylamino)acetamide]",4.1,3,1.3,,,
"CC(C)(N)C(=O)NCC(O)(c1ccc(Cl)cc1)c1ccc(-c2ccnc3[nH]ccc23)cc1 (stereo not drawn) [Compound 1028, N-(2-(4-(1H-pyrrolo[2,3-b]pyridin-4-yl)phenyl)-2-(4-chlorophenyl)-2-hydroxyethyl)-2-amino-2-methylpropanamide]",1.9,2.4,1.9,,,
"NCC(=O)NCC(O)(c1ccc(Cl)cc1)c1ccc(-c2ccnc3[nH]cc(F)c23)cc1 (stereo not drawn) [Compound 1029, 2-amino-N-(2-(4-chlorophenyl)-2-(4-(3-fluoro-1H-pyrrolo[2,3-b]pyridin-4-yl)phenyl)-2-hydroxyethyl)acetamide]",2.6,1.3,0.7,,,
"CN(CC(O)(c1ccc(Cl)cc1)c1ccc(-c2ccnc3[nH]ccc23)cc1)C(=O)CN (stereo not drawn) [Compound 1030, N-(2-(4-(1H-pyrrolo[2,3-b]pyridin-4-yl)phenyl)-2-(4-chlorophenyl)-2-hydroxyethyl)-2-amino-N-methylacetamide]",4.4,5.1,1.1,,,

# Second part, the molecule after the results:
IC50 (LATS1; [1]) [nM],IC50 (LATS2; [1]) [nM],IC50 (AKT; [1]) [nM],IC50 (LATS1; biochemical kinase inhibition) [nM],IC50 (LATS2; biochemical kinase inhibition) [nM],IC50 (AKT; biochemical kinase inhibition) [nM],Compound
,,,3.3,3.3,278,"N#Cc1c[nH]c2nccc(-c3ccc(C4(O)CCNCC4)cc3)c12 [Compound 2001, 4-(4-(4-hydroxypiperidin-4-yl)phenyl)-1H-pyrrolo[2,3-b]pyridine-3-carbonitrile]"
,,,4.8,2.5,244,"CN[C@@H](CO)C(=O)N1C[C@@H](C)[C@](O)(c2c(C)cc(-c3ccnc4[nH]cc(C#N)c34)cc2F)[C@@H](C)C1 [Compound 2009, 4-(3-fluoro-4-((3S,4R,5R)-4-hydroxy-3,5-dimethyl-1-(methyl-L-seryl)piperidin-4-yl)-5-methylphenyl)-1H-pyrrolo[2,3-b]pyridine-3-carbonitrile]"
,,,13.4,8.5,89.4,"Cc1cc(-c2ccnc3[nH]cc(C#N)c23)ccc1[C@@]1(O)[C@H](C)CN(C(=O)[C@@H](C)N)C[C@@H]1C [Compound 2010, 4-(4-((3S,4S,5R)-1-(D-alanyl)-4-hydroxy-3,5-dimethylpiperidin-4-yl)-3-methylphenyl)-1H-pyrrolo[2,3-b]pyridine-3-carbonitrile]"
,,,5.7,2.9,330,"Cc1cc(-c2ccnc3[nH]cc(C#N)c23)cc(F)c1[C@@]1(O)[C@H](C)CN(C(=O)[C@@H]2CCCN2)C[C@@H]1C [Compound 2013, 4-(4-((3S,4S,5R)-1-(L-prolyl)-4-hydroxy-3,5-dimethylpiperidin-4-yl)-3-fluoro-5-methylphenyl)-1H-pyrrolo[2,3-b]pyridine-3-carbonitrile]"
,,,9.2,6.4,48.8,"Cc1cc(-c2ccnc3[nH]cc(C#N)c23)ccc1[C@@]1(O)[C@H](C)CN(C(=O)[C@H](N)CO)C[C@@H]1C [Compound 2016, 4-(4-((3S,4S,5R)-1-(D-seryl)-4-hydroxy-3,5-dimethylpiperidin-4-yl)-3-methylphenyl)-1H-pyrrolo[2,3-b]pyridine-3-carbonitrile]"
,,,11.1,7.2,610,"Cc1cc(-c2ccnc3[nH]cc(C#N)c23)cc(F)c1[C@@]1(O)[C@H](C)CN(C(=O)C(C)(C)N)C[C@@H]1C [Compound 2018, 4-(4-((3S,4s,5R)-1-(2-amino-2-methylpropanoyl)-4-hydroxy-3,5-dimethylpiperidin-4-yl)-3-fluoro-5-methylphenyl)-1H-pyrrolo[2,3-b]pyridine-3-carbonitrile]"
